Data taken from ChEMBL document CHEMBL1201862, “PubChem BioAssay data set” (2004).
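All cell lines were grown in 96-well plates and treated with compound for 48 hours. At the GI50, growth is halved.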 Activity calls are given as the source filed them. Rule as the data show it: active = GI50 up to about 1.1 µM and inactive = higher.

Experiments:
Assay in all cases: NCI tumour cell line growth inhibition, 48 h
UACC-62 = tested on: UACC-62
UACC-257 = tested on: UACC-257
SK-MEL-28 = tested on: SK-MEL-28
PC-3 = tested on: PC-3
MDA-N = tested on: MDA-N
M14 = tested on: M14
A549 = tested on: A549
T47D = tested on: T47D
OVCAR-5 = tested on: OVCAR-5
HT-29 = tested on: HT-29
MOLT-4 = tested on: MOLT-4
EKVX = tested on: EKVX
SNB-75 = tested on: SNB-75
RPMI-8226 = tested on: RPMI-8226
BT-549 = tested on: BT-549
KM12 = tested on: KM12
SF-268 = tested on: SF-268
SK-MEL-2 = tested on: SK-MEL-2
RXF 393 = tested on: RXF 393
LOX IMVI = tested on: LOX IMVI

Measured: GI50

Cn1c(=O)oc2nc(-c3ccccc3)cc(C(F)(F)F)c21
inactive: UACC-62 > 100 µM | UACC-257 > 100 µM | SK-MEL-28 > 100 µM | PC-3 > 100 µM | MDA-N 3.23 µM | M14 > 100 µM | A549 > 100 µM | T47D > 100 µM | OVCAR-5 > 100 µM | HT-29 33.2 µM | MOLT-4 14.3 µM | EKVX > 100 µM | SNB-75 > 100 µM | RPMI-8226 30.5 µM | BT-549 > 100 µM | KM12 9.93 µM | SF-268 > 100 µM | SK-MEL-2 > 100 µM

COC(=O)C1CC(C=[N+](C)C)=C(SC)N1C(=O)OCc1ccccc1 (stereo not given)
inactive: UACC-62 > 100 µM | UACC-257 > 100 µM | SK-MEL-28 > 100 µM | PC-3 > 100 µM | MDA-N > 100 µM | M14 > 100 µM | A549 > 100 µM | RXF 393 > 100 µM | T47D > 100 µM | OVCAR-5 > 100 µM | HT-29 > 100 µM | MOLT-4 > 100 µM | EKVX > 100 µM | SNB-75 > 100 µM | RPMI-8226 > 100 µM | BT-549 > 100 µM | KM12 > 100 µM | SF-268 > 100 µM | SK-MEL-2 > 100 µM

CC(CO)C1C[C@H](O)[C@@]2(C)CC(=O)C=C(CO)[C@@H]2C1 (stereo not given in full)
inactive: UACC-62 > 100 µM | UACC-257 > 100 µM | SK-MEL-28 > 100 µM | MDA-N > 100 µM | M14 > 100 µM | A549 > 100 µM | RXF 393 > 100 µM | T47D > 100 µM | OVCAR-5 > 100 µM | HT-29 > 100 µM | LOX IMVI > 100 µM | MOLT-4 > 100 µM | EKVX > 100 µM | SNB-75 > 100 µM | BT-549 > 100 µM | KM12 > 100 µM | SF-268 > 100 µM | SK-MEL-2 > 100 µM

Cc1cc2c(cc1C(=O)c1ccc(N)cc1)OCO2
inactive: UACC-62 31 µM | UACC-257 > 100 µM | PC-3 43.6 µM | MDA-N 12.4 µM | M14 29.4 µM | A549 39.6 µM | T47D 28 µM | OVCAR-5 27 µM | HT-29 22.9 µM | MOLT-4 40.1 µM | EKVX 31 µM | RPMI-8226 36.3 µM | BT-549 48.8 µM | KM12 21.4 µM | SF-268 31.2 µM | SK-MEL-2 23.9 µM

Cc1c(O)c(OC2OC(CO)C(O)C(O)C2O)cc2c1CC[C@@H]1C2(C)C(=O)C[C@]2(C)[C@@H]([C@@](C)(O)C(=O)CCC(C)(C)O)[C@H](O)C[C@@]12C (stereo not given in full)
inactive: UACC-62 > 100 µM | UACC-257 > 100 µM | SK-MEL-28 > 100 µM | PC-3 > 100 µM | MDA-N > 100 µM | M14 > 100 µM | A549 > 100 µM | RXF 393 > 100 µM | T47D > 100 µM | OVCAR-5 > 100 µM | HT-29 > 100 µM | MOLT-4 > 100 µM | EKVX > 100 µM | SNB-75 > 100 µM | BT-549 > 100 µM | KM12 > 100 µM | SF-268 > 100 µM | SK-MEL-2 > 100 µM

Cc1cc(=O)oc2c(OS(C)(=O)=O)c(OS(C)(=O)=O)ccc12
inactive: UACC-62 > 100 µM | UACC-257 > 100 µM | SK-MEL-28 > 100 µM | PC-3 > 100 µM | MDA-N > 100 µM | M14 > 100 µM | A549 > 100 µM | OVCAR-5 > 100 µM | HT-29 > 100 µM | LOX IMVI > 100 µM | MOLT-4 > 100 µM | EKVX > 100 µM | RPMI-8226 > 100 µM | BT-549 > 100 µM | KM12 > 100 µM | SF-268 > 100 µM | SK-MEL-2 > 100 µM

NC(Cc1ccc(OCc2ccccc2)cn1)C(=O)OCc1ccccc1 (stereo not given)
inactive: UACC-257 > 100 µM | SK-MEL-28 > 100 µM | PC-3 > 100 µM | MDA-N > 100 µM | A549 > 100 µM | RXF 393 > 100 µM | OVCAR-5 > 100 µM | HT-29 > 100 µM | LOX IMVI > 100 µM | EKVX > 100 µM | RPMI-8226 > 100 µM | BT-549 > 100 µM | KM12 > 100 µM

Cc1cc(N(CCC#N)CCC#N)ccc1C(/N=N\c1ccc([N+](=O)[O-])cc1)=N\NC(=O)c1cc(Cl)ccc1O
inactive: UACC-62 22.9 µM | UACC-257 34 µM | PC-3 23 µM | MDA-N 51.3 µM | M14 42 µM | A549 38.6 µM | RXF 393 28.6 µM | T47D 25.9 µM | OVCAR-5 > 100 µM | HT-29 29.4 µM | MOLT-4 20.3 µM | EKVX 24.3 µM | SNB-75 > 100 µM | RPMI-8226 > 100 µM | BT-549 34.8 µM | KM12 27.7 µM | SF-268 19.9 µM | SK-MEL-2 34.4 µM

COc1cc2c(cc1O)CC[n+]1cc3c(OC)c(OC)ccc3cc1-2
inactive: UACC-62 > 100 µM | UACC-257 90.4 µM | SK-MEL-28 > 100 µM | PC-3 > 100 µM | MDA-N > 100 µM | M14 > 100 µM | A549 > 100 µM | T47D 94.4 µM | OVCAR-5 > 100 µM | HT-29 > 100 µM | LOX IMVI > 100 µM | MOLT-4 > 100 µM | EKVX > 100 µM | SNB-75 > 100 µM | RPMI-8226 81.8 µM | BT-549 47.3 µM | KM12 76.7 µM | SF-268 > 100 µM | SK-MEL-2 > 100 µM

CCOC(=O)c1cc(-c2ccc(Cl)cc2)c([N+](=O)[O-])n1C
inactive: UACC-257 > 10 µM | MDA-N > 10 µM | M14 > 10 µM | A549 > 10 µM | T47D 2.05 µM | OVCAR-5 > 10 µM | HT-29 > 10 µM | MOLT-4 > 10 µM | EKVX > 10 µM | BT-549 > 10 µM | KM12 > 10 µM | SF-268 > 10 µM | SK-MEL-2 > 10 µM

C=C1CCC2CC1C(C(=O)c1c[nH]c3ccccc13)=NC2(C)C (stereo not given)
inactive: UACC-62 > 100 µM | UACC-257 > 100 µM | SK-MEL-28 > 100 µM | PC-3 > 100 µM | MDA-N > 100 µM | M14 > 100 µM | A549 > 100 µM | T47D 48.2 µM | OVCAR-5 > 100 µM | HT-29 > 100 µM | LOX IMVI > 100 µM | MOLT-4 > 100 µM | EKVX 77.3 µM | SNB-75 > 100 µM | RPMI-8226 91 µM | BT-549 > 100 µM | KM12 > 100 µM | SF-268 > 100 µM

CCOC(=O)C(NC(=O)C(CCCCNP(=O)(OCC)OCC)NC(=O)C(C)NC(C)=O)C(C)C (stereo not given)
inactive: UACC-257 > 100 µM | SK-MEL-28 > 100 µM | PC-3 > 100 µM | MDA-N > 100 µM | M14 > 100 µM | A549 > 100 µM | RXF 393 > 100 µM | OVCAR-5 > 100 µM | HT-29 > 100 µM | LOX IMVI > 100 µM | MOLT-4 > 100 µM | EKVX > 100 µM | SNB-75 > 100 µM | RPMI-8226 > 100 µM | BT-549 > 100 µM | KM12 > 100 µM | SF-268 > 100 µM | SK-MEL-2 > 100 µM

Cc1c(/C=N/NC(=S)N2CCCCC2)c(=O)n(-c2ccccc2)n1C
inactive: UACC-62 > 100 µM | UACC-257 > 100 µM | SK-MEL-28 75.2 µM | PC-3 > 100 µM | MDA-N > 100 µM | M14 61.9 µM | A549 55.3 µM | RXF 393 26.5 µM | OVCAR-5 > 100 µM | HT-29 73.8 µM | LOX IMVI 70.5 µM | MOLT-4 31.3 µM | EKVX 43.8 µM | SNB-75 > 100 µM | RPMI-8226 67.5 µM | BT-549 > 100 µM | KM12 97.1 µM | SF-268 29.5 µM

Oc1ccc(Cc2cc(Cc3ccc(O)cc3)cc(Cc3ccc(O)cc3)c2)cc1
inactive: UACC-62 > 50 µM | UACC-257 > 50 µM | SK-MEL-28 > 50 µM | PC-3 > 50 µM | MDA-N > 50 µM | M14 > 50 µM | A549 > 50 µM | OVCAR-5 > 50 µM | HT-29 > 50 µM | LOX IMVI > 50 µM | MOLT-4 > 50 µM | EKVX > 50 µM | SNB-75 > 50 µM | RPMI-8226 > 50 µM | BT-549 > 50 µM | KM12 > 50 µM | SF-268 > 50 µM | SK-MEL-2 > 50 µM

Cc1ccc([S+]([O-])CC(CF)OCn2cc(C)c(=O)[nH]c2=O)cc1 (stereo not given)
inactive: UACC-62 > 100 µM | SK-MEL-28 > 100 µM | PC-3 > 100 µM | MDA-N > 100 µM | M14 > 100 µM | A549 > 100 µM | T47D > 100 µM | OVCAR-5 > 100 µM | LOX IMVI > 100 µM | MOLT-4 > 100 µM | SNB-75 > 100 µM | RPMI-8226 > 100 µM | BT-549 90.2 µM | KM12 > 100 µM | SF-268 > 100 µM | SK-MEL-2 > 100 µM

COc1cc(COC(=O)N(CC(=O)O)c2ccccc2)c([N+](=O)[O-])cc1OC
inactive: UACC-62 > 100 µM | UACC-257 > 100 µM | SK-MEL-28 > 100 µM | PC-3 > 100 µM | MDA-N > 100 µM | M14 > 100 µM | A549 > 100 µM | RXF 393 > 100 µM | T47D > 100 µM | OVCAR-5 > 100 µM | HT-29 > 100 µM | MOLT-4 > 100 µM | EKVX > 100 µM | SNB-75 > 100 µM | RPMI-8226 > 100 µM | BT-549 > 100 µM | KM12 > 100 µM | SF-268 > 100 µM
